Tests used:
Assay type in all cases: in vivo
[1] = tested on: redroot pigweed (Amaranthus retroflexus, AMARE); assay: Pre-emerge test, greenhouse herbicide activity screening; conditions: pre-emerge, rated 14 days after application, 0 = no damage, 100 = complete death
Method in brief: (§1)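 Rating: 0–100 visual injury, 14 DAA. Application: acetone, 187 l/ha, 15–1000 g ai/ha, flat-fan track sprayer with nozzle 40–45 cm above soil or canopy. Post-emerge runs used 0.25% v/v surfactant on 2–3 leaf plants.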

[2] = tested on: barnyardgrass (Echinochloa crus-galli, ECHCG); assay: as above; conditions: pre-emerge, rated 14 days after application, 0 = no damage, 100 = complete death
Method in brief: (§2)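 Compounds in acetone were track-sprayed at 15–1000 g ai/ha: pre-emergence onto soil sown the previous day, then top-watered to incorporate and later bottom-watered; post-emergence onto 2–3 leaf plants with 0.25% v/v surfactant, bottom-watered only. Ratings on a 0–100 phytotoxicity scale were taken at day 14.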

[3] = tested on: green foxtail (Setaria viridis, SETVI); assay: as above; conditions: pre-emerge, rated 14 days after application, 0 = no damage, 100 = complete death
Method in brief: as §2

[4] = tested on: ivyleaf morningglory (Ipomoea hederacea, IPOHE); assay: as above; conditions: pre-emerge, rated 14 days after application, 0 = no damage, 100 = complete death
Method in brief: as §2

[5] = tested on: johnsongrass (Sorghum halepense, SORHA); assay: as above; conditions: pre-emerge, rated 14 days after application, 0 = no damage, 100 = complete death
Method in brief: as §2

[6] = tested on: lambsquarters (Chenopodium album, CHEAL); assay: as above; conditions: pre-emerge, rated 14 days after application, 0 = no damage, 100 = complete death
Method in brief: as §2

[7] = tested on: large crabgrass (Digitaria sanguinalis, DIGSA); assay: as above; conditions: pre-emerge, rated 14 days after application, 0 = no damage, 100 = complete death
Method in brief: as §2

[8] = tested on: sicklepod (Cassia obtusifolia, CASOB); assay: as above; conditions: pre-emerge, rated 14 days after application, 0 = no damage, 100 = complete death
Method in brief: as §2

[9] = tested on: velvetleaf (Abutilon theophrasti, ABUTH); assay: as above; conditions: pre-emerge, rated 14 days after application, 0 = no damage, 100 = complete death
Method in brief: as §2

[10] = tested on: field corn (Zea mays L., var. Dekalb 535, CORN); assay: Pre-emerge test, crop safety; conditions: pre-emerge, rated 14 days after application, 0 = no damage, 100 = complete death
Method in brief: (§3)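 Sandy loam pots; pre-emerge: sown 1 d pre-spray, surface-watered after, then bottom-watered. Post-emerge: sown 8–21 d before, 2–3 leaf stage, + 0.25% v/v NIS, bottom-watered. Acetone, 187 l/ha track spray, 15–1000 g ai/ha. 0–100 injury score, day 14.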

[11] = tested on: upland rice (Oryza sp., var. Tebonnet, RICE); assay: Pre-emerge test, crop safety; conditions: pre-emerge, rated 14 days after application, 0 = no damage, 100 = complete death
Method in brief: as §3

[12] = tested on: barnyardgrass (Echinochloa crus-galli, ECHCG); assay: Post-emerge test, greenhouse herbicide activity screening; conditions: phytotoxicity rating 0-100 (0 no damage, 100 complete death), 14 days after application
Method in brief: (§4)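 Visual ratings on a 0-100 scale (0 no damage, 100 all plants dead) were taken at 14 days after treatment. Rates of 15-1000 g ai/ha in acetone, 187 l/ha, were sprayed onto soil one day after planting (pre-emerge) or onto 2-3 leaf plants with 0.25% v/v surfactant (post-emerge).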

[13] = tested on: green foxtail (Setaria viridis, SETVI); assay: as above; conditions: phytotoxicity rating 0-100 (0 no damage, 100 complete death), 14 days after application
Method in brief: as §4

[14] = tested on: ivyleaf morningglory (Ipomoea hederacea, IPOHE); assay: as above; conditions: phytotoxicity rating 0-100 (0 no damage, 100 complete death), 14 days after application
Method in brief: as §4

[15] = tested on: johnsongrass (Sorghum halepense, SORHA); assay: as above; conditions: phytotoxicity rating 0-100 (0 no damage, 100 complete death), 14 days after application
Method in brief: as §4

[16] = tested on: lambsquarters (Chenopodium album, CHEAL); assay: as above; conditions: phytotoxicity rating 0-100 (0 no damage, 100 complete death), 14 days after application
Method in brief: as §4

[17] = tested on: large crabgrass (Digitaria sanguinalis, DIGSA); assay: as above; conditions: phytotoxicity rating 0-100 (0 no damage, 100 complete death), 14 days after application
Method in brief: as §4

[18] = tested on: redroot pigweed (Amaranthus retroflexus, AMARE); assay: as above; conditions: phytotoxicity rating 0-100 (0 no damage, 100 complete death), 14 days after application
Method in brief: as §4

[19] = tested on: sicklepod (Cassia obtusifolia, CASOB); assay: as above; conditions: phytotoxicity rating 0-100 (0 no damage, 100 complete death), 14 days after application
Method in brief: as §4

[20] = tested on: velvetleaf (Abutilon theophrasti, ABUTH); assay: as above; conditions: phytotoxicity rating 0-100 (0 no damage, 100 complete death), 14 days after application
Method in brief: as §4

[21] = tested on: field corn (Zea mays L., var. Dekalb 535, CORN); assay: Post-emerge test, crop safety; conditions: phytotoxicity rating 0-100 (0 no damage, 100 complete death), 14 days after application
Method in brief: as §1

[22] = tested on: upland rice (Oryza sp., var. Tebonnet, RICE); assay: Post-emerge test, crop safety; conditions: phytotoxicity rating 0-100 (0 no damage, 100 complete death), 14 days after application
Method in brief: as §1

With COc1c(Cl)cc(F)c(-n2c(=O)cc(C(F)(F)F)n(C)c2=O)c1NC(=O)C(C)(C)C [2-3] the “Pre-emerge Herbicidal Activity AMARE (phytotoxicity rating, scale 0-100)” value ([1]; 63 g ai/ha) was 100, the “Pre-emerge Herbicidal Activity AMARE (phytotoxicity rating, scale 0-100)” value ([1]; 250 g ai/ha) was 100 and the “Pre-emerge Herbicidal Activity ECHCG (phytotoxicity rating, scale 0-100)” value ([2]; 63 g ai/ha) was 0. For the same compound, the “Pre-emerge Herbicidal Activity ECHCG (phytotoxicity rating, scale 0-100)” value ([2]; 250 g ai/ha) was 40, the “Pre-emerge Herbicidal Activity SETVI (phytotoxicity rating, scale 0-100)” value ([3]; 63 g ai/ha) was 90 and the “Pre-emerge Herbicidal Activity SETVI (phytotoxicity rating, scale 0-100)” value ([3]; 250 g ai/ha) was 100. For the same compound, the “Pre-emerge Herbicidal Activity IPOHE (phytotoxicity rating, scale 0-100)” value ([4]; 63 g ai/ha) was 60, the “Pre-emerge Herbicidal Activity IPOHE (phytotoxicity rating, scale 0-100)” value ([4]; 250 g ai/ha) was 100 and the “Pre-emerge Herbicidal Activity SORHA (phytotoxicity rating, scale 0-100)” value ([5]; 63 g ai/ha) was 10. The “Pre-emerge Herbicidal Activity SORHA (phytotoxicity rating, scale 0-100)” value ([5]; 250 g ai/ha) was 30, the “Pre-emerge Herbicidal Activity CHEAL (phytotoxicity rating, scale 0-100)” value ([6]; 63 g ai/ha) was 100 and the “Pre-emerge Herbicidal Activity CHEAL (phytotoxicity rating, scale 0-100)” value ([6]; 250 g ai/ha) was 100. For the same compound, the “Pre-emerge Herbicidal Activity DIGSA (phytotoxicity rating, scale 0-100)” value ([7]; 63 g ai/ha) was 30, the “Pre-emerge Herbicidal Activity DIGSA (phytotoxicity rating, scale 0-100)” value ([7]; 250 g ai/ha) was 60 and the “Pre-emerge Herbicidal Activity CASOB (phytotoxicity rating, scale 0-100)” value ([8]; 63 g ai/ha) was 60. The “Pre-emerge Herbicidal Activity CASOB (phytotoxicity rating, scale 0-100)” value ([8]; 250 g ai/ha) was 100, the “Pre-emerge Herbicidal Activity ABUTH (phytotoxicity rating, scale 0-100)” value ([9]; 63 g ai/ha) was 100 and the “Pre-emerge Herbicidal Activity ABUTH (phytotoxicity rating, scale 0-100)” value ([9]; 250 g ai/ha) was 100. The “Pre-emerge crop damage CORN (phytotoxicity rating, scale 0-100)” value ([10]; 63 g ai/ha) was 0, the “Pre-emerge crop damage CORN (phytotoxicity rating, scale 0-100)” value ([10]; 250 g ai/ha) was 30 and the “Pre-emerge crop damage RICE (phytotoxicity rating, scale 0-100)” value ([11]; 63 g ai/ha) was 20. For the same compound, the “Pre-emerge crop damage RICE (phytotoxicity rating, scale 0-100)” value ([11]; 250 g ai/ha) was 50, the “Post-emerge Herbicidal Activity ECHCG” value ([12]; 63 g ai/ha) was 0 and the “Post-emerge Herbicidal Activity ECHCG” value ([12]; 250 g ai/ha) was 0. For the same compound, the “Post-emerge Herbicidal Activity SETVI” value ([13]; 63 g ai/ha) was 0, the “Post-emerge Herbicidal Activity SETVI” value ([13]; 250 g ai/ha) was 0 and the “Post-emerge Herbicidal Activity IPOHE” value ([14]; 63 g ai/ha) was 60. The “Post-emerge Herbicidal Activity IPOHE” value ([14]; 250 g ai/ha) was 100, the “Post-emerge Herbicidal Activity SORHA” value ([15]; 63 g ai/ha) was 0 and the “Post-emerge Herbicidal Activity SORHA” value ([15]; 250 g ai/ha) was 0. For the same compound, the “Post-emerge Herbicidal Activity CHEAL” value ([16]; 63 g ai/ha) was 30, the “Post-emerge Herbicidal Activity CHEAL” value ([16]; 250 g ai/ha) was 30 and the “Post-emerge Herbicidal Activity DIGSA” value ([17]; 63 g ai/ha) was 0. The “Post-emerge Herbicidal Activity DIGSA” value ([17]; 250 g ai/ha) was 0, the “Post-emerge Herbicidal Activity AMARE” value ([18]; 63 g ai/ha) was 10 and the “Post-emerge Herbicidal Activity AMARE” value ([18]; 250 g ai/ha) was 40. For the same compound, the “Post-emerge Herbicidal Activity CASOB” value ([19]; 63 g ai/ha) was 0, the “Post-emerge Herbicidal Activity CASOB” value ([19]; 250 g ai/ha) was 0 and the “Post-emerge Herbicidal Activity ABUTH” value ([20]; 63 g ai/ha) was 80. The “Post-emerge Herbicidal Activity ABUTH” value ([20]; 250 g ai/ha) was 100, the “Post-emerge Herbicidal Activity CORN (crop damage)” value ([21]; 63 g ai/ha) was 0 and the “Post-emerge Herbicidal Activity CORN (crop damage)” value ([21]; 250 g ai/ha) was 10. The “Post-emerge Herbicidal Activity RICE (crop damage)” value ([22]; 63 g ai/ha) was 0 and the “Post-emerge Herbicidal Activity RICE (crop damage)” value ([22]; 250 g ai/ha) was 40.
